Reference: PubChem BioAssay AID652053 (Broad Institute, 2013)

System: Huh7 psiCHECK-miR122 Renilla luciferase reporter, 48 h
Assay: miR-122 inhibitors in Huh7 reporter cells, dose response, cell-based, Huh7 psiCHECK-miR122, Renilla luciferase, cherry-pick (AID 652053)

| SMILES | AC40 |
| --- | --- |
| COc1ccc(C(=O)Nc2ccc(S(=O)(=O)NCc3ccco3)cc2)cc1OC | 4.75 µM |
| CCC(=O)N1N=C(c2ccc(NS(=O)(=O)c3ccc(C)cc3)cc2)CC1c1ccco1 (stereo not drawn) | 4.52 µM |
| C=CCNc1cc(F)ccc1S(=O)(=O)NCC=C | 1.03 µM |
| C[C@H](CO)N1C[C@H](C)[C@H](CN(C)Cc2ccc(C(=O)Nc3ccccc3N)cc2)Oc2c(NS(=O)(=O)c3ccccc3)cccc2C1=O | 16.1 µM |
| COc1ccccc1N(CC(=O)N1CCCCC1C)S(=O)(=O)c1ccc(Cl)cc1 (stereo not drawn) | 2.31 µM |
| CCOC(=O)c1c(S(=O)(=O)Nc2cccc(Cl)c2)c(C)n(C)c1C | 1.08 µM |
| O=C(Nc1sc2c(c1C(=O)O)CCC2)c1ccco1 | 15.1 µM |
| COc1ccccc1CNC(=O)C[C@H]1CC[C@H]2[C@H](COc3ccc(NS(=O)(=O)c4ccc(C)cc4)cc3C(=O)N2C)O1 | 22.4 µM |
| COc1ccc(NS(=O)(=O)c2ccc(NC(=S)NC(=O)CC(C)C)cc2)cc1 | 0.502 µM |
| CCOC(=O)CNS(=O)(=O)c1cc(-c2nnc(Nc3ccc4c(c3)OCO4)c3ccccc23)ccc1C | 2.63 µM |
| Cc1ccc(-c2n[nH]c(=O)c3ccccc23)cc1S(=O)(=O)Nc1ccc(F)cc1 | 0.293 µM |
| CCCNC(=O)NNC(=O)c1cc(-c2ccc3c(c2)OCO3)nc2ccccc12 | 2.65 µM |
| C[C@@H]1CN([C@H](C)CO)C(=O)c2cccc(NC(=O)C3CC3)c2O[C@H]1CN(C)Cc1ccc(C(F)(F)F)cc1 | 4.08 µM |
| O=S(=O)(NCC1CCCO1)c1cc(Br)c(Br)s1 (stereo not drawn) | 4 µM |
| C[C@H](CO)N1C[C@H](C)[C@H](CN(C)Cc2ccc(C(=O)Nc3ccccc3N)cc2)Oc2ccc(NS(=O)(=O)c3ccccc3)cc2CC1=O | 3.45 µM |
| C[C@@H]1CN([C@H](C)CO)C(=O)Cc2cc(NC(=O)Nc3ccc(C(F)(F)F)cc3)ccc2O[C@@H]1CN(C)C(=O)Nc1cccc2ccccc12 | < 0.26 µM |
| Cc1ccc2ccccc2c1C(O)c1ncc(-c2ccccc2F)[nH]1 (stereo not drawn) | 4.22 µM |
| CCOC(=O)c1c(C)[nH]c(C)c1S(=O)(=O)NCCc1ccc(SC)cc1 | 0.686 µM |
| O=C(Nc1nc2ccc(S(=O)(=O)N3CCCC3)cc2s1)C1CCCCC1 | 14.8 µM |
| O=C(NCc1ccncc1)c1cccc(S(=O)(=O)Nc2ccc(F)cc2)c1 | 3.23 µM |
| COc1ccc(S(=O)(=O)N(C)C[C@H]2Oc3ccc(NC(=O)Nc4ccc(C(F)(F)F)cc4)cc3C(=O)N([C@H](C)CO)C[C@H]2C)cc1 | 1.81 µM |
| CCCNC(=O)NC[C@H]1[C@@H](c2ccc(C3=CCCC3)cc2)[C@@H](CO)N1C(=O)CC | 10.2 µM |
| COc1cc(C)c(C(C)C)cc1S(=O)(=O)N1CCN(C)CC1 | 7.96 µM |
| COc1ccc(NS(=O)(=O)c2cc(NS(=O)(=O)c3cccs3)ccc2C)cc1 | 4.04 µM |
| CCOc1cc(C)c(S(=O)(=O)Nc2ccc3cn[nH]c3c2)cc1C | 1.24 µM |

| SMILES | AC40 |
| --- | --- |
| Clc1ccc2[nH]cc(-c3nnnn3-c3ccc4ccccc4c3)c2c1 | 6.75 µM |
| COc1ccc(NS(=O)(=O)c2cc3c(cc2C)N(C)CCO3)cc1 | 2.04 µM |
| CCCCNS(=O)(=O)c1ccc2nc(-c3cccnc3)cc(C(=O)NC(C)CC)c2c1 (stereo not drawn) | 0.387 µM |
| Cc1ccc(C)c(S(=O)(=O)Nc2ccc(O)cc2)c1 | 8.22 µM |
| COc1cc(S(=O)(=O)NC2CCCC2)c(OC)cc1Cl | 2.6 µM |
| O=C(Nc1ccc(S(=O)(=O)NCCc2ccccc2)cc1)c1ccc(Br)o1 | 0.54 µM |
| CC(C)C(=O)NC(=S)Nc1ccc(S(=O)(=O)Nc2ccccc2)cc1 | 0.461 µM |
| C[C@H]1CN([C@@H](C)CO)C(=O)Cc2cc(N(C)C)ccc2O[C@@H]1CN(C)Cc1ccc(C(=O)Nc2ccccc2N)cc1 | 25.7 µM |
| CC(NC(=O)COc1ccccc1)C(=O)OCC(=O)c1cc2ccccc2o1 (stereo not drawn) | 33.5 µM |
| Cc1cc(C(=O)Nc2cccc3c2O[C@@H](CN(C)CC2CCCCC2)[C@@H](C)CN([C@@H](C)CO)C3=O)n(C)n1 | 5.85 µM |
| Cc1ccc(NS(=O)(=O)c2cc(C(=O)NCc3ccccn3)ccc2Cl)cc1C | 2.91 µM |
| Cc1ccc(S(=O)(=O)N(CC(=O)N2CCC(C)CC2)c2cccc(C)c2)cc1 | 12 µM |
| CCOc1ccc(S(=O)(=O)Nc2ccc3c(c2)OCO3)c2cccnc12 | < 0.26 µM |
| COc1ccc(S(=O)(=O)Nc2cccc3c2O[C@H](CN(C)Cc2ccc(Cl)c(Cl)c2)[C@@H](C)CN([C@H](C)CO)C3=O)cc1 | 4.25 µM |
| COc1cccc(C(=O)N2C[C@H]3[C@@H](c4ccccc42)[C@@H](CO)N3C(=O)c2ccc(F)cc2)c1 | 2.16 µM |
| COc1ccc(C2=Nn3c(nnc3-c3ccccc3OC)SC2)cc1OC1CCOC1 (stereo not drawn) | 8.29 µM |
| Cc1cc(C(O)c2ncc(-c3ccccc3F)[nH]2)ccc1F (stereo not drawn) | 3.57 µM |
| COc1ccc(NS(=O)(=O)c2cc(NC(=O)c3ccc(F)cc3)ccc2OC)cc1 | 3.14 µM |
| Cc1cc(C(=O)Nc2cccc3c2O[C@H](CN(C)Cc2ccc(C(F)(F)F)cc2)[C@@H](C)CN([C@H](C)CO)C3=O)n(C)n1 | 0.943 µM |
| O=S(Cc1ccccc1)CC(O)(c1ccc(Cl)cc1)c1ccc(Cl)cc1 (stereo not drawn) | 10.5 µM |
| S=C(NCc1ccncc1)Nc1cc(Cl)cc(Cl)c1 | 5.2 µM |
| C[C@H](CO)N1C[C@H](C)[C@H](CN(C)CC2CCCCC2)Oc2c(NC(=O)C3CCOCC3)cccc2C1=O | 1.95 µM |
| CN(C)c1ccc(C(=O)c2ccc(N(C)C)c3ccccc23)cc1 | 4.07 µM |
| Cc1ccc(NC(=O)Cc2cn(C)c3ccccc23)cc1F | 7.09 µM |
| O=S(=O)(Nc1ccccc1)c1ccc(Oc2ncc(C(F)(F)F)cc2Cl)cc1 | 21.6 µM |

| SMILES | AC40 |
| --- | --- |
| COc1ccccc1NS(=O)(=O)c1cccc(NC(=O)c2[nH]c(C)c(C(C)=O)c2C)c1 | 7.17 µM |
| Cc1cccc(C(O)c2ncc(-c3ccccc3F)[nH]2)c1C (stereo not drawn) | 5.74 µM |
| S=C(NCC1CCCCC1)Nc1ccc(Oc2ccccc2)cc1 | 14.6 µM |
| COc1ccccc1CNC(=O)C[C@H]1CC[C@H]2[C@@H](COc3ccc(NS(=O)(=O)c4ccc(C)cc4)cc3C(=O)N2C)O1 | 21.5 µM |
| C[C@H](CO)N1C[C@H](C)[C@@H](CN(C)Cc2ccc3c(c2)OCO3)Oc2c(NS(=O)(=O)c3ccc(Cl)cc3)cccc2C1=O | 24.2 µM |
| O=C(CCc1ccc(S(=O)(=O)NC2CCCCC2)cc1)N(Cc1ccccc1)Cc1ccccc1 | 2.07 µM |
| N#Cc1c(NC(=O)c2ccccc2)sc2c1CCC2 | 29 µM |
| COc1ccccc1NS(=O)(=O)c1cc(NC(=O)CCC2CCCC2)ccc1N1CCOCC1 | 1.45 µM |
| Nc1c(S(=O)(=O)c2cccs2)c2nc3ccccc3nc2n1Cc1ccccc1 | 1.86 µM |
| COc1cccc(NS(=O)(=O)c2ccc3c(c2)N(C(C)=O)CCO3)c1 | 3.67 µM |
| Cc1ccc(S(=O)(=O)Nc2ccc(C(=O)Nc3cc(C)on3)cc2)cc1 | 1.44 µM |
| COc1ccc(OC)c(S(=O)(=O)N/N=C\c2ccc3c(c2)OCO3)c1 | 0.508 µM |
| CCOc1ccc(C)cc1S(=O)(=O)NC1CCCCC1 | 0.575 µM |
| C[C@@H]1CN([C@@H](C)CO)C(=O)c2cc(N(C)C)ccc2O[C@H]1CN(C)Cc1ccc(C(=O)Nc2ccccc2N)cc1 | 9.78 µM |
| O=C(NNS(=O)(=O)c1ccc(Cl)cc1)c1cccc(S(=O)(=O)N2CCOCC2)c1 | 5.2 µM |
| O=S(=O)(NCC1CCCO1)c1ccc(Oc2ccccc2)cc1 (stereo not drawn) | 5.86 µM |
| COc1ccc(S(=O)(=O)N(CCc2ccccc2)CC(=O)N2CCOCC2)cc1 | 17.1 µM |
| CCOC(=O)c1cc(S(=O)(=O)NCCc2ccccc2)cn1C | 3.84 µM |
| Cc1ccc(S(=O)(=O)Nc2c(C)ccc3nsnc23)cc1 | 17.6 µM |
| COc1ccc(OC)c(S(=O)(=O)N2CCC3(CC2)OCCN3S(=O)(=O)c2cccs2)c1 | 15.7 µM |
| Cc1ccc(NS(=O)(=O)c2cc(OCC(N)=O)c(C)cc2Cl)cc1C | 7.14 µM |
| CN1CC(c2ccccc2Cl)C2(COc3ccccc3C2=O)C12C(=O)Nc1ccccc12 (stereo not drawn) | 2.2 µM |
| CCc1cccc2c(C(=O)CN3C(=O)NC4(CCCCC4)C3=O)c[nH]c12 | 6.01 µM |
| COc1ccc(NC(=O)Nc2cccc3c2O[C@H](CN(C)Cc2ccc4c(c2)OCO4)[C@@H](C)CN([C@H](C)CO)C3=O)cc1 | 22.8 µM |
| CCOc1ccc(Cl)cc1S(=O)(=O)NC1CCCC1 | 2.27 µM |

| SMILES | AC40 |
| --- | --- |
| COc1ccc(OC)c(S(=O)(=O)Nc2cc3c4c(c2)CCN4C(=O)CC3)c1 | 2.85 µM |
| CCOc1ccc2cc(C3CC(c4ccco4)=NN3S(C)(=O)=O)c(=O)[nH]c2c1 (stereo not drawn) | 7.29 µM |
| CCCCCCNS(=O)(=O)c1ccc(Cl)s1 | 13.9 µM |
| CC(=O)c1ccc(NS(=O)(=O)c2c(C)cc(C)cc2C)cc1 | 1.82 µM |
| CCc1nnc(NC(=O)c2ccc(NS(=O)(=O)c3ccccc3)cc2)s1 | 2.68 µM |
| Cc1ccc(NS(=O)(=O)c2ccc(-c3cnc(C4CC4)o3)cc2)cc1 | 9.25 µM |
| CCc1ccc(NS(=O)(=O)c2cc(OC)ccc2OC)cc1 | 0.866 µM |
| CC(C)(C)C(=O)Nc1cc(S(=O)(=O)Nc2ccc(Cl)cc2)ccc1O | 13.8 µM |
| Cc1cc(C(C)(C)C)cc(S(=O)(=O)NCCO)c1C | 1.16 µM |
| Cc1ccc(NS(=O)(=O)c2csc(C(N)=O)c2)cc1C | 3.14 µM |
| Cc1ccc(S(=O)(=O)Nc2cccc3c2O[C@H](CN(C)Cc2ccc(C(=O)Nc4ccccc4N)cc2)[C@H](C)CN([C@H](C)CO)C3=O)cc1 | 10.8 µM |
| CCc1c(C(=O)NC2CCCc3ccccc32)[nH]c(C)c1C(C)=O (stereo not drawn) | 9 µM |
| CC(=O)c1cccc(NS(=O)(=O)c2ccc3c(c2)oc(=O)n3C)c1 | 7.31 µM |
| C[C@@H]1CN([C@H](C)CO)C(=O)Cc2cc(NC(=O)Nc3ccc4c(c3)OCO4)ccc2O[C@@H]1CN(C)C(=O)Nc1cccc2ccccc12 | 0.579 µM |
| C[C@H](CO)N1C[C@H](C)[C@H](CN(C)Cc2ccc(C(=O)Nc3ccccc3N)cc2)Oc2ccc(NC(=O)Nc3ccc4c(c3)OCO4)cc2CC1=O | 8.06 µM |
| C[C@H](CO)N1C[C@H](C)[C@@H](CN(C)CC2CCCCC2)Oc2c(NC(=O)c3ccncc3)cccc2C1=O | 1.97 µM |
| COc1ccc(C)cc1S(=O)(=O)NC1CCCC1 | 6.24 µM |
| Cc1ccc(-c2nn(Cc3ccccc3)cc2C(=O)N2CCN(c3ccccn3)CC2)cc1 | 2.44 µM |
| C[C@H]1CN([C@@H](C)CO)C(=O)c2cccc(NS(=O)(=O)c3ccccc3)c2O[C@@H]1CN(C)Cc1ccc(C(=O)Nc2ccccc2N)cc1 | 22 µM |
| CN1c2ccc(-c3ccccc3)cc2[C@H]2[C@H](CCN2S(=O)(=O)c2ccccc2F)[C@H]1CO | 3.63 µM |
| Cc1cccc(-c2nn(-c3ccccc3)cc2C(=O)Nc2cccc(S(=O)(=O)NC3=NCCC3)c2)c1 | 18.3 µM |
| COC(=O)c1c(C)oc(C)c1S(=O)(=O)NCC1CC1 | 3.29 µM |
| COc1ccc(S(=O)(=O)N(CC(=O)Nc2cc(C)on2)Cc2ccccc2)cc1 | 21.3 µM |
